This note sets out measurements from ChEMBL document CHEMBL5291721, “A preclinical secondary pharmacology resource illuminates target-adverse drug reaction associations of marketed drugs” (Nat Commun, 2023).

For one assay, the target named is T1, Progesterone receptor (Homo sapiens, UniProt P06401).
T1 sequence (P06401 whole entry): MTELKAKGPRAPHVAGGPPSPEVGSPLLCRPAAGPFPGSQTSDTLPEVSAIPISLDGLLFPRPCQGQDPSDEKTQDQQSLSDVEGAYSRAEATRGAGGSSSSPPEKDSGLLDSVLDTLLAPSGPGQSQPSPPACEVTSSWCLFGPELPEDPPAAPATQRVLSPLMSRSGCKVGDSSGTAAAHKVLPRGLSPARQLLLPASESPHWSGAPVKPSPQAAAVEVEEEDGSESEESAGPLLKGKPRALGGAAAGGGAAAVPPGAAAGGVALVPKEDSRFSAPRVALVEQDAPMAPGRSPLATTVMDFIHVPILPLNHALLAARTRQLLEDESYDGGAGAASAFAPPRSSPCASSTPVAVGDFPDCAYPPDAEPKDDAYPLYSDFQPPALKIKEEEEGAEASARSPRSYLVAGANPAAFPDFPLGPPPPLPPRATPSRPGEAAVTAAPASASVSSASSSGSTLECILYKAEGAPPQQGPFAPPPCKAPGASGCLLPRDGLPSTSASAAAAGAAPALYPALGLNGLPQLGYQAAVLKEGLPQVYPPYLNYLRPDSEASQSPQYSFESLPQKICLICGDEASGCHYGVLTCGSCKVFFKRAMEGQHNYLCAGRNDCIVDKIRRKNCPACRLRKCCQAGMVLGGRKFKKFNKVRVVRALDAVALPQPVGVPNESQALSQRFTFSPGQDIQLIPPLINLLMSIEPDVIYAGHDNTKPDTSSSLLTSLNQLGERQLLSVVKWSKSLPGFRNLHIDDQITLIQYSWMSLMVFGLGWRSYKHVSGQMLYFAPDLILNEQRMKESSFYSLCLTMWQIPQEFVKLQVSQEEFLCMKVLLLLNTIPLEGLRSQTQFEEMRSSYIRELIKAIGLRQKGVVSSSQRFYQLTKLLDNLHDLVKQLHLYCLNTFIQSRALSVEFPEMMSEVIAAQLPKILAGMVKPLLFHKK
It counts as functional.

The target of another assay is Adenosine receptor A2a (Homo sapiens, UniProt P29274).
Assay [1] concerns the target Beta-2 adrenergic receptor (Homo sapiens, UniProt P07550).
In assay [2] the target is T2, Gamma-aminobutyric acid receptor subunit alpha-1 (Rattus norvegicus, UniProt P62813). In kind it is functional.
Assay [3] has as its target T3, 5-hydroxytryptamine receptor 1A (Homo sapiens, UniProt P08908).
T3 sequence (P08908 whole entry): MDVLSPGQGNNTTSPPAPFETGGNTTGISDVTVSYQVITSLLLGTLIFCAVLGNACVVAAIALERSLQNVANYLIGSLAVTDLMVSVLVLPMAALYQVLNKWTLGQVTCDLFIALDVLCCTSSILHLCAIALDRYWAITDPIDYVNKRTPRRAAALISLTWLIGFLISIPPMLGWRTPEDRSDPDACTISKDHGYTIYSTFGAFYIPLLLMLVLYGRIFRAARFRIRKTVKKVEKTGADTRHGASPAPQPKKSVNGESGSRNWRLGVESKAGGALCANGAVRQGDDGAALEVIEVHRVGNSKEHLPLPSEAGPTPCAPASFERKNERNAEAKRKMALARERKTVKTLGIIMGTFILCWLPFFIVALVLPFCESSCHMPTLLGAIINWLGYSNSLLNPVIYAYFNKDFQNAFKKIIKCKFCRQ
It counts as functional, cell-based.

A further assay deals with Histamine H3 receptor (Homo sapiens, UniProt Q9Y5N1).
For assay [4], the target named is T4, Muscarinic acetylcholine receptor M2 (Homo sapiens, UniProt P08172).
T4 sequence (P08172 whole entry): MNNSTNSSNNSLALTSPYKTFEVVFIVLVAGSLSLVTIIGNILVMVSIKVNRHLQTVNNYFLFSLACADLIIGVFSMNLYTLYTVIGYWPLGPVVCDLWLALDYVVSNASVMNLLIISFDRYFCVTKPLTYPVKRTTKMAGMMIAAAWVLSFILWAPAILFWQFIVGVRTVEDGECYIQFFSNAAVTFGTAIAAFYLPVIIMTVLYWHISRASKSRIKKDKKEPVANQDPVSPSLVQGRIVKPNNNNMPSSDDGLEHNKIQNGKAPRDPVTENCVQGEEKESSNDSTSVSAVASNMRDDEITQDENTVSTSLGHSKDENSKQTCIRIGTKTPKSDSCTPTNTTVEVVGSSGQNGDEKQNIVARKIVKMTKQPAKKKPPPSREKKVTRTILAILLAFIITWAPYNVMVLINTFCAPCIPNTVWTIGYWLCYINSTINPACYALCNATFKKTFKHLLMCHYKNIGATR
It counts as functional, cell-based.

The target of assay [5] is Growth hormone secretagogue receptor type 1 (Homo sapiens, UniProt Q92847).
Assay [6] addresses T2, Gamma-aminobutyric acid receptor subunit alpha-1.
For assay [7], the target named is Voltage-dependent L-type calcium channel subunit alpha-1C (Rattus norvegicus, UniProt P22002). In kind it is functional.
Further: assay procedure not described here.

Chain of Histamine H3 receptor (Q9Y5N1 whole entry): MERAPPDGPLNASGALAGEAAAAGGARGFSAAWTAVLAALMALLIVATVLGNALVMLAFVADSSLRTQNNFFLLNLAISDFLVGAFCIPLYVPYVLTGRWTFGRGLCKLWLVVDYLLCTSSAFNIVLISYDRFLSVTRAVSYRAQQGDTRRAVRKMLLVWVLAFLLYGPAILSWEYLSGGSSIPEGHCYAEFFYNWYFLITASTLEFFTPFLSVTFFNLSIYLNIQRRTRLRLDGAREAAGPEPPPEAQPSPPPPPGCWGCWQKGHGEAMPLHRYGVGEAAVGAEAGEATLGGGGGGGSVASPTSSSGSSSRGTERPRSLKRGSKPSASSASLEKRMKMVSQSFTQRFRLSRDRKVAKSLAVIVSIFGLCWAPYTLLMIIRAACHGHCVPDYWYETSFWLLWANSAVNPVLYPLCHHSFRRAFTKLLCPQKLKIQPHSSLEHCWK
T2 sequence (P62813 whole entry): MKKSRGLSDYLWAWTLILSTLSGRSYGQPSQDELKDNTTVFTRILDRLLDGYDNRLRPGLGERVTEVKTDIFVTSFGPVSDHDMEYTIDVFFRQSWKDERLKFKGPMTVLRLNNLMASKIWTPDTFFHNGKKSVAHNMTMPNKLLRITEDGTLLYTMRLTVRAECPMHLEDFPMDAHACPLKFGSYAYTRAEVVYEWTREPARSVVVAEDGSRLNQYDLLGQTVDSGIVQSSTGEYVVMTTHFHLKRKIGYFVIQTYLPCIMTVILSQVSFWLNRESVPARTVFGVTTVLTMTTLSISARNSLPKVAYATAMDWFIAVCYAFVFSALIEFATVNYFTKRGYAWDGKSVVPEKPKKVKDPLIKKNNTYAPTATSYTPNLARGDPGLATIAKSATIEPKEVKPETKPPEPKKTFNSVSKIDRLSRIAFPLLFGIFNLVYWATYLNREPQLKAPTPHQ
Chain of Beta-2 adrenergic receptor (P07550 whole entry): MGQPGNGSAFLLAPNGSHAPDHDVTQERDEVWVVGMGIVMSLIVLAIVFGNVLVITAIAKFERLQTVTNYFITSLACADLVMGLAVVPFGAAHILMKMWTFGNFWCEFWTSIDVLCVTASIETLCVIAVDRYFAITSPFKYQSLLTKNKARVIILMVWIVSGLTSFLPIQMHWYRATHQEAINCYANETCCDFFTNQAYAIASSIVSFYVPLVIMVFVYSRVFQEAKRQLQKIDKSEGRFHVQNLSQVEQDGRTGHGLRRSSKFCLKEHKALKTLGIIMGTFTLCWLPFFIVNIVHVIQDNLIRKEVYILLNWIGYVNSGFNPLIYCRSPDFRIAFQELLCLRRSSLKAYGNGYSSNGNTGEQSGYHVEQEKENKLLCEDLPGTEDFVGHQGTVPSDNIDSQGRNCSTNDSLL
Chain of Voltage-dependent L-type calcium channel subunit alpha-1C (P22002 whole entry): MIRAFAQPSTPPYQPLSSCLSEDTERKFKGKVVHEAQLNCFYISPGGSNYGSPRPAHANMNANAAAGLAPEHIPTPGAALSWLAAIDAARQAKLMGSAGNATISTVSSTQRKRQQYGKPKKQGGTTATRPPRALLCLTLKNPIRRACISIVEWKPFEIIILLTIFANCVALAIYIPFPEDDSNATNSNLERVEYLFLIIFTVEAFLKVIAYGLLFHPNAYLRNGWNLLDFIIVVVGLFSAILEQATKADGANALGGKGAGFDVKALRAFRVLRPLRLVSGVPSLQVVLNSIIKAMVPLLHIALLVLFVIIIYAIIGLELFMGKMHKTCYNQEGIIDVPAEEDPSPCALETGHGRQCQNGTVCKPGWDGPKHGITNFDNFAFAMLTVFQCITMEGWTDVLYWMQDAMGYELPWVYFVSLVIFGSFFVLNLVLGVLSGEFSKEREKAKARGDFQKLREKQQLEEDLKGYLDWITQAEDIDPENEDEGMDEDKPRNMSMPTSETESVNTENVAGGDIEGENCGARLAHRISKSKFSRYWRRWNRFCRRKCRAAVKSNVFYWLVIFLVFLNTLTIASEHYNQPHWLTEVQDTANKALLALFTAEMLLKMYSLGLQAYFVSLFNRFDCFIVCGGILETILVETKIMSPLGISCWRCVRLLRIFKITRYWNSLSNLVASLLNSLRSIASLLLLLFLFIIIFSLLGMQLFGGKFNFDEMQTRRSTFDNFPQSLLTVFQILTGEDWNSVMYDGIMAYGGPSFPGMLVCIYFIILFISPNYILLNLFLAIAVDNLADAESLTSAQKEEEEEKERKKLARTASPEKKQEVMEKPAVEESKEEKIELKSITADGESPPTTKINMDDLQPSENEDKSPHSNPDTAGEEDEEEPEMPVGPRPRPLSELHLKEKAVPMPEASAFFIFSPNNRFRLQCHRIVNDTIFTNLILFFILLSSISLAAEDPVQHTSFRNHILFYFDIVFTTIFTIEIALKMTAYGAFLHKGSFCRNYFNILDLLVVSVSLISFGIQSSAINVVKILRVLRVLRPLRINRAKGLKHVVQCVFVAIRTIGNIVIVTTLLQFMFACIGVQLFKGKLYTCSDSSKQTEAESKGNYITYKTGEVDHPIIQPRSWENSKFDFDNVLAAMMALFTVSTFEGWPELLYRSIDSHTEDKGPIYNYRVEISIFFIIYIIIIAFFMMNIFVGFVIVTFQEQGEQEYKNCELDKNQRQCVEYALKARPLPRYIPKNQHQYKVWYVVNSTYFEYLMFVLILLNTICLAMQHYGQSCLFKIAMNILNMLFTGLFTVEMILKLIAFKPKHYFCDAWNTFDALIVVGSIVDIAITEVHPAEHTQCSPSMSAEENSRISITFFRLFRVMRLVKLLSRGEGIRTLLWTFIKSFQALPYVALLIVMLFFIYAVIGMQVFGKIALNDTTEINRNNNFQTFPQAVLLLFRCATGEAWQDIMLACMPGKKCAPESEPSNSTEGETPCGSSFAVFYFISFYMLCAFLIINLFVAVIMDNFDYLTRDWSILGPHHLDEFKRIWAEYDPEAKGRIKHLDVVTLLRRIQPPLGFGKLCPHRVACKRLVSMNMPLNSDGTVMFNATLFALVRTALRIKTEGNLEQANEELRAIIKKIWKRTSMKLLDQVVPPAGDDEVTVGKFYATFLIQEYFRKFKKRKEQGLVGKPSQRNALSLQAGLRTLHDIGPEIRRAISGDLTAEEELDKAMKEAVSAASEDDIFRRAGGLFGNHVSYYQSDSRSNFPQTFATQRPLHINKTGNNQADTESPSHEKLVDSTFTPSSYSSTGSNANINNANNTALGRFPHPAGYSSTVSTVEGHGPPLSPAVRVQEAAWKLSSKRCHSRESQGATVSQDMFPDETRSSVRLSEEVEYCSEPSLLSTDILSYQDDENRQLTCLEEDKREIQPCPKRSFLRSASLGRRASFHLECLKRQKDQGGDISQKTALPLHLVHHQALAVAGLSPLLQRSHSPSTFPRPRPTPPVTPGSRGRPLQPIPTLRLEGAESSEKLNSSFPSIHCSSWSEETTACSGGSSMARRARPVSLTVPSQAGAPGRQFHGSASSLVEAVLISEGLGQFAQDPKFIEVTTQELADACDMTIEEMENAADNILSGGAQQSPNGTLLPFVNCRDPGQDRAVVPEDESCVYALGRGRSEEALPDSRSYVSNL
Chain of Adenosine receptor A2a (P29274 whole entry): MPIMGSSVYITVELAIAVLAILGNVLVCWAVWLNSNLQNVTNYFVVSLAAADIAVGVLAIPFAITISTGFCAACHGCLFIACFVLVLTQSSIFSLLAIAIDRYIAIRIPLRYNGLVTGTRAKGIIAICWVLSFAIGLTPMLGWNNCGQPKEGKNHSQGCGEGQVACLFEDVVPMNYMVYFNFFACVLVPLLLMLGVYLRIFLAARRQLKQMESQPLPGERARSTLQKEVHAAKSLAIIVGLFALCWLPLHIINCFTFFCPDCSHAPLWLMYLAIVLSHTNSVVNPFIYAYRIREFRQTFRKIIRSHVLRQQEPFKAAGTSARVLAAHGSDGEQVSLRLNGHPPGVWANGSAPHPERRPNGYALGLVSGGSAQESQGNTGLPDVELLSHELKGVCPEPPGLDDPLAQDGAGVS
Chain of Growth hormone secretagogue receptor type 1 (Q92847 whole entry): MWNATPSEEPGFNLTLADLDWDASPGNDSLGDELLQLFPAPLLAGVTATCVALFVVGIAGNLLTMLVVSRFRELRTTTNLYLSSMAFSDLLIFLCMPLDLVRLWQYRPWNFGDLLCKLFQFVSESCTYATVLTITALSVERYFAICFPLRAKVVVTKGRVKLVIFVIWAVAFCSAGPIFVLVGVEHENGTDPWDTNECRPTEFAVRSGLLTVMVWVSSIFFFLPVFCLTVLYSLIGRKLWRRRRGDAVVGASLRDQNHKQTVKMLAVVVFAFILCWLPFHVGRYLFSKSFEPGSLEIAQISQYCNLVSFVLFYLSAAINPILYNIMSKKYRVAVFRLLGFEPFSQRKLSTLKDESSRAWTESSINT

As for `CC(=O)O[C@H]1CC[C@@]2(C)C(=CC[C@@H]3[C@@H]2CC[C@]2(C)C(c4cccnc4)=CC[C@@H]32)C1` [ABIRATERONE ACETATE], the AC50 is > 30 µM on Progesterone receptor; > 30 µM at Adenosine receptor A2a; > 10 µM in assay [1]; > 30 µM in [2]; > 30 µM in assay [3]; > 30 µM at Histamine H3 receptor. The AC50 in assay [4] and in assay [5] was > 30 µM each time.

As for `O=C(O)CCCCCCCC(=O)O` [AZELAIC ACID], the AC50 (at Progesterone receptor; at Adenosine receptor A2a; in assay [1]; in [2]; in assay [6]; in assay [3]) was > 10 µM throughout. Also, the AC50 in assay [4], in assay [7] and in [5] was > 10 µM in each case.

For the molecule `CCN1CCN(C(=O)N[C@@H](C(=O)N[C@@H]2C(=O)N3C(C(=O)O)=C(CSc4nnnn4C)CS[C@H]23)c2ccc(O)cc2)C(=O)C1=O` [CEFOPERAZONE], the AC50 (on Adenosine receptor A2a; in [2]; in assay [3]; on Histamine H3 receptor; in assay [4]; in [5]) was > 30 µM each time.

Consider `COc1ccc2c3c1O[C@H]1[C@@H](O)C=C[C@H]4[C@@H](C2)N(C)CC[C@@]341` [CODEINE], for which the AC50 is > 30 µM at Adenosine receptor A2a; > 10 µM in [1]; > 10 µM in assay [2]; > 30 µM in [6]; > 10 µM in assay [3]; > 10 µM on Histamine H3 receptor. In addition, the AC50 in [4] is > 10 µM; in assay [7], > 10 µM; in assay [5], > 30 µM.

As to `Cc1ccc(S(=O)(=O)NC(=O)NN2CC3CCCC3C2)cc1` (stereo not drawn) [GLICLAZIDE], the AC50 (at Progesterone receptor; on Adenosine receptor A2a; in assay [1]; in assay [2]; in assay [6]; in assay [3]) was > 10 µM each time. Also, the AC50 in [4], in assay [7] and in assay [5] was > 10 µM throughout.

Consider `CNC(C)CCC=C(C)C` (stereo not drawn) [ISOMETHEPTENE], for which the AC50 (on Progesterone receptor; on Adenosine receptor A2a; in assay [1]; at Histamine H3 receptor; in assay [5]) was > 30 µM throughout.

As to `C[C@](N)(Cc1ccc(O)c(O)c1)C(=O)O` [METHYLDOPA], the AC50 on Progesterone receptor was > 30 µM; at Adenosine receptor A2a, > 30 µM; in assay [1], > 10 µM; in assay [2], > 10 µM; in assay [6] it was > 10 µM; in assay [3], > 10 µM. Moreover, the AC50 in assay [4], in [7] and in assay [5] was > 10 µM throughout.

Take `O=C(NCCN1CCOCC1)c1ccc(Cl)cc1` [MOCLOBEMIDE]: the AC50 (on Progesterone receptor; at Adenosine receptor A2a; in [1]; in assay [2]; in assay [6]; in assay [3]) was > 10 µM throughout. Also, the AC50 in assay [4], in assay [7] and in assay [5] was > 10 µM throughout.

In the case of `CCCc1nc(C(C)(C)O)c(C(=O)OCc2oc(=O)oc2C)n1Cc1ccc(-c2ccccc2-c2nnn[nH]2)cc1` [OLMESARTAN MEDOXOMIL], the AC50 (at Adenosine receptor A2a; in [1]; in [2]; in [6]; in assay [3]; in [4]) was > 10 µM throughout. Further, the AC50 in [7] is > 10 µM; in assay [5] it was > 50 µM.

For `N#Cc1ccc([C@H]2CCc3cncn32)c(F)c1` [OSILODROSTAT], the AC50 (on Adenosine receptor A2a; in assay [1]; in [2]; in assay [6]; at Histamine H3 receptor; in assay [7]) was > 10 µM throughout. In assay [5], the AC50 is > 10 µM.

For `CCCC(C)C1(CC)C(=O)NC(=O)NC1=O` (stereo not drawn) [PENTOBARBITAL], the AC50 (at Progesterone receptor; on Adenosine receptor A2a; in [1]; in [3]; in [4]; in [7]) was > 10 µM each time. Also, the AC50 in [5] is > 10 µM.

For the molecule `CC[C@@H]1C(=O)OC[C@@H]1Cc1cncn1C` [PILOCARPINE], the AC50 is > 30 µM at Adenosine receptor A2a; > 10 µM in assay [1]; > 10 µM in [2]; > 10 µM in assay [6]; > 30 µM in [3]; > 10 µM on Histamine H3 receptor. Moreover, the AC50 in assay [7] was > 10 µM; in assay [5], > 30 µM.

As for `C#C[C@]1(O)CC[C@H]2[C@@H]3CCc4cc(OC5CCCC5)ccc4[C@H]3CC[C@@]21C` [QUINESTROL], the AC50 (at Adenosine receptor A2a; in [1]; in assay [2]; in assay [6]; in assay [3]; in [4]) was > 10 µM in each case. Further, the AC50 in assay [7] and in [5] was > 10 µM throughout.

On to `CN1C(=O)C(O)N=C(c2ccccc2)c2cc(Cl)ccc21` (stereo not drawn) [TEMAZEPAM], for which the AC50 at Adenosine receptor A2a is > 30 µM; in [1] it was > 10 µM; in assay [2], 0.044 µM; in [6], > 10 µM; in assay [3], > 10 µM; on Histamine H3 receptor, > 10 µM. In addition, the values for the AC50 in [4], in [7] and in [5] were > 10 µM, > 10 µM and > 30 µM, respectively.

For the molecule `CCN(CC)C(=O)N[C@H]1C[C@@H]2c3cccc4[nH]cc(c34)C[C@H]2N(C)C1` [TERGURIDE], the AC50 on Progesterone receptor is > 30 µM; at Adenosine receptor A2a, > 30 µM; in [2], > 30 µM; in [6], > 30 µM; in assay [3], 0.18 µM; on Histamine H3 receptor, > 30 µM. Further, the AC50 in [4] and in assay [5] was > 30 µM in each case.

Regarding `C/C(O)=C(\C#N)C(=O)Nc1ccc(C(F)(F)F)cc1` [TERIFLUNOMIDE], the AC50 (on Progesterone receptor; at Adenosine receptor A2a; in [2]; in [3]; at Histamine H3 receptor; in assay [4]) was > 30 µM each time. Further, the AC50 in assay [5] was > 30 µM.

For the molecule `CN1CCN(CC/C=C2/c3ccccc3Sc3ccc(S(=O)(=O)N(C)C)cc32)CC1` [THIOTHIXENE], the AC50 on Adenosine receptor A2a is 11.6 µM; in [1] it was > 10 µM; in assay [2] it was > 10 µM; in assay [6] it was > 10 µM; in assay [4], > 10 µM; in assay [7] it was > 10 µM. Also, in assay [5], the AC50 stood at 25.3 µM.
